System: HLA-A*24:02 transgenic mouse
Assay: Test 3: in vivo CTL induction, cocktail vaccine b, IFNγ ELISPOT
Conditions: FIG. 1; for CTL counts responsive to Peptide SEQ ID No. 2 on adding the compound to cocktail vaccine b: vs cocktail vaccine b alone, 100 ng Example 1 or 69 ng Reference example 12 per body, intradermal, twice
Procedure: Evaluation of In Vivo CTL Induction in HLA-A*24:02 Transgenic Mouse
The in vivo adjuvant activity of the compound of Example 1 and the compound of Reference example 12 was evaluated in the following procedure. To a cocktail vaccine comprising Compound of formula 4 prepared in Reference example 8 and Peptide SEQ ID No. 3 prepared in Reference example 3 with Montanide ISA 51 V (hereinafter, referred to as “cocktail vaccine b”) was added the compound prepared in Example 1 or the compound prepared in Reference example 12 respectively to prepare each vaccine. The vaccine was administered to a HLA-A*24:02 transgenic mouse, and the adjuvant activity of each vaccine was evaluated by the method of testing antigen-specific cytotoxic T-lymphocyte (CTL) induction.
The CYTWNQMNL (SEQ ID No. 2) in Compound of formula 4 corresponds to an antigen peptide derived from an HLA-A*24:02-restricted WT1 protein.
HLA-A*24:02 transgenic mouse (C57BL/6CrHLA-A2402/K^b) expresses a chimeric HLA of a human MHC (HLA-A*24:02) and a mouse MHC (H-2K^b). The mouse can induce CTLs with a peptide which can induce CTLs in HLA-A*24:02-positive human (Int J Cancer. 2002; 100: 565-70).
The character for inducing CTLs specific to the peptide (SEQ ID No. 2) by cocktail vaccine b was evaluated by measuring whether IFNγ can be produced upon stimulation of splenocytes from the mouse with the peptide (SEQ ID No. 2). In addition, the character for exerting in vivo adjuvant activity by the compound in Example 1 or the compound in Reference example 12 was evaluated by comparing the number of CTLs induced by cocktail vaccine b and the number of CTLs induced by the vaccine prepared by adding the compound prepared in Example 1 or the compound in Reference example 12 to cocktail vaccine b, and checking presence or absence of the increase on the number.
Specifically, Compound of formula 4 and Peptide SEQ ID No. 3 were dissolved in DMSO, and then diluted with water for injection to concentrations of Compound of formula 4 of 6 mg/ml and Peptide of SEQ ID No. 3 of 4.5 mg/ml. […]

Structure (SMILES) | increase of the CTL counts (Peptide SEQ ID No. 2) compared with Reference example 12 (added to cocktail vaccine b, 100 ng Example 1 vs 69 ng Reference example 12 per body) | CTL counts responsive to Peptide SEQ ID No. 2 on adding the compound to cocktail vaccine b
CCCCCNc1nc(N)nc(C)c1Cc1ccc(CN(C)CCOCCOCCOCCOCCO)cc1OC [Example 1, 1-(4-{[2-amino-4-methyl-6-(pentylamino)pyrimidin-5-yl]methyl}-3-methoxyphenyl)-2-methyl-5,8,11,14-tetraoxa-2-azahexadecan-16-ol·trifluoroacetate] | more | increased
CCCCCNc1nc(N)nc(C)c1Cc1ccc(CNC)cc1OC [Reference example 12, 5-({2-methoxy-4-[(methylamino)methyl]phenyl}methyl)-6-methyl-N^4-pentylpyrimidine-2,4-diamine, reference compound] | – | increased
